Laboratory results taken from patent US20110274808A1, “METHODS FOR INCREASING THE PALATABILITY OF COMPANION ANIMAL FOOD COMPOSITIONS” (Hill's Pet Nutrition, Inc., priority 2008, published 2011).

What was measured:
GSH:GSSG ratio = assay: Change in GSH:GSSG ratio in blood lymphocytes of dogs fed dl-alpha-lipoic acid in extruded food; type: in vivo, dog
From the text: (§1) Thirty (30) adult, random source, dogs were utilized for this study. Dogs were at least 10 months of age, not pregnant, not lactating and of reasonable body weight prior to start of test. Animals were randomized into 5 groups for dietary treatment with 3 males and 3 females per each group.
All dogs were fed a control food (0 ppm dl-alpha-lipoic acid added) that met or exceeded all recommendations for nutrients as proposed by the American Association of Feed Control Officials (AAFCO 2000) during a 2 week prefeeding period (Table 2). Following the prefeeding period dogs were randomized into 5 treatment groups with one of the following dl-alpha lipoic acid target-inclusions (dry matter basis): 0 ppm, 150 ppm, 1500 ppm, 3000 ppm, 4500 ppm. In all diets, control and alpha lipoic acid, Vitamin E was added and was present at a level of 600-1000 International Units and Vitamin C was added at levels of 100-200 ppm.
Blood was collected aseptically for complete blood count, and blood biochemistry analysis 2 weeks prior to start and again at 0, 28, 56, 84, 112, 140 and 168 days of the study. In addition, 15 ml of whole blood was collected for isolation of lymphocytes at day 0, 28 and 84 of the dietary intervention.
Heparinzed whole blood was layered onto a 50 ml Accuspin conical centrifuge tube (Sigma Chemical) and an equal volume of Phosphate buffered saline (PBS) was added. Samples were centrifuged at 700 g for 30 minutes without brake. The monocyte layer was harvested, transferred to a 15 ml conical centrifuge tube, resuspended in 1-3 ml of PB, and centrifuged as before (First wash). A second wash was performed as the first wash. Finally, cells were harvested and suspended in perchloric acid (10% w/v) and frozen at −70° C. until analysis.
Samples were transferred from −70° C. freezer into a cooler with dry ice in it. Vials were centrifuged at 12,000 rpm for 5 minutes in a refrigerated centrifuge. An aliquot of supernatant for glutathione (GSH) analysis was transferred to a conical test tube.
Derivatization of the acid soluble extracts was by the method of Reed and coworkers (Fariss et al) as modified by Jones (Jones et al)
Briefly, 150 μL extract or external standards were added into a 1.5 ml Eppendorf tube followed by addition of 20 μγ-Glu-Glu internal standard and 50 μL IAA added followed by mixing. The solution was adjusted to pH about 10 (purple color) by using KOH—KHCO3 working solution. Solutions were incubated 1 hr. under room temperature in the dark. Sanger's reagent was added at the same volume as of the total volume and the solution was incubated overnight (20 hrs) in the dark at room temperature.
After incubation, the solution was centrifuged at 12000 rpm for 5 minutes with the supernatant transferred into another 1.5 ml eppendorf tube.
Solvents and separation conditions were as described (Fariss, Jones). Levels of GSH and GSSG were quantified relative to authentic standards. Gamma-glutamyl-glutamate was used as an internal standard to assess derivatization efficiency.
Comparison of values for clinical chemistry, hematology and body weights vs baseline were analyzed by way of paired t-test on SAS for windows with significance set at P<0.05. Means of values at each measured time point were separated by a one-way ANOVA with significance set at P<0.05. The difference in GSH:GSSG between day 84 and baseline were analyzed between groups by way of SAS for windows in a one-way ANOVA with significance set at P<0.05.

[1] = Six-month feeding safety study in dogs (body weight, physical examination, serum biochemistry, hematology); type: in vivo
From the text: as §1
All dogs were fed a control food (0 ppm dl-alpha-lipoic acid added) that met or exceeded all recommendations for nutrients as proposed by the American Association of Feed Control Officials (AAFCO 2000) during a 2 week prefeeding period (Table 2). […]
Test foods were the sole source of nutrients except for water. […] After dogs were selected and initial body weights taken, a food dose was calculated for each dog based on the expected ME of the food. Initial food dose calculations were based on the maintenance energy requirement (MER) for the dog modified by a factor to account for normal activity as calculated by the following formula: […]
Dogs were weighed weekly and had food doses adjusted as needed in order to feed enough food to maintain their optimal body weight. Optimal body weight was determined to be 3 on a 5 point scale. […] All measures of body weight and food intake were recorded. […]
Comparison of values for clinical chemistry, hematology and body weights vs baseline were analyzed by way of paired t-test on SAS for windows with significance set at P<0.05. […]

[2] = Change in body composition of dogs over 90 days; type: in vivo, dog; details: 90 day treatment period
From the text: Table 4 illustrates the change in body composition of dogs fed a control diet compared with dogs fed a control plus fish oil and a control plus lipoic acid.

O=C(O)CCCCC1CCSS1 (racemic) [DL-Alpha Lipoic Acid, dl-alpha-lipoic acid]
Difference in GSH:GSSG ratio - day 0 to day 84 (GSH:GSSG ratio; dogs, 150 ppm inclusion in extruded food): 70 +/− 20 | Difference in GSH:GSSG ratio - day 0 to day 84 (GSH:GSSG ratio; dogs, 1,500 ppm inclusion in extruded food): 24 +/− 7 | Difference in GSH:GSSG ratio - day 0 to day 84 (GSH:GSSG ratio; dogs, 3,000 ppm inclusion in extruded food): 10 +/− 4 | Difference in GSH:GSSG ratio - day 0 to day 84 (GSH:GSSG ratio; dogs, 4,500 ppm inclusion in extruded food): 50 +/− 36 | Effect on reduced glutathione (GSH) to oxidized glutathione (GSSG) ratio (GSH:GSSG ratio; dogs, chronic feeding in diet): improves | Safety of chronic feeding in diet ([1]; dog, in vivo): safe and effective | Body weight ([1]; dogs, 4500 ppm inclusion group, 6 months): some weight loss occurred initially | Change in weight compared with control and fish oil diets [2]: greatest change in weight
